In patent publication US7109174B2, “Anticonvulsant derivatives useful for preventing the development of type II diabetes mellitus and syndrome X” (Ortho-McNeil Pharmaceutical, Inc., priority 2000, dated 2006):

What was measured:
ob/ob mice = ob/ob mice first study: topiramate in food for 120 days; plasma glucose, insulin, triglycerides, body weight; format: in vivo; settings: for Blood concentration Glucose / Blood concentration Insulin / Blood concentration Triglycerides: mean ± SEM, N 10
Text: It is known that ob/ob mice when allowed to eat ad libitum, develop abnormally high blood levels of insulin (hyperinsulinemia), glucose (hyperglycemia), lesions of the skin, and a high level of glycosylated hemoglobin, all of which are hallmark signs of Type II diabetes mellitus (R. R. HENRY, Ann. Intern. Med. 1996, 124, 97–103; G. W. EDELSON, Clin. Podiatr. Med. Surg. 1998, 15, 41–48; P. R. JOHNSON, M. R. GREENWOOD, B. A. HORWITZ and J. S. STERN, Annu. Rev. Nutr. 1991, 11, 325–353). Based on this knowledge of the ob/ob mouse model, two studies were designed to determine the effect of compounds of formula (I) in these mice models.
In the first study, a uniform population of mice was divided into three groups; in one group of control mice no topiramate was added to the food for the entire 120-day study period. In a second group topiramate was added to the food in amounts sufficient to give a daily dose of 20 mg/kg for 84 days, then a daily dose of 180 mg/kg for 36 days. A third group received a daily dose of 60 mg/kg for the entire 120 days. After completion of the 120-day period, the mice were sacrificed and blood was obtained and prepared for subsequent analyses of glucose, insulin and triglycerides in plasma.

[1] = system: Heterozygous Non-Diabetic Mice; assay: Plasma glucose, triglycerides and body weight in heterozygous non-diabetic littermates, 11 days oral dosage; format: in vivo; settings: for Plasma Glucose % Change / Plasma Triglycerides % Change: versus vehicle; for Change in Body Weight / Plasma Glucose Plasma Conc. / Plasma Triglycerides Plasma Conc.: ± SEM
Description: Six to seven week old female C57 BLK SIJ-m^+/^+ Lepr^db mice (db/db) and heterozygous littermates were purchased from The Jackson Laboratory (Bar Harbor, Me.). Upon arrival the mice were quarantined for 5 days and housed in pairs in shoe-box cages containing ALPHA-dri® bedding (Shepherd Speciality Papers, Inc., Kalamazoo, Mich.). The mice were maintained at an ambient temperature of 21 to 23° C. on a 12 hour-12 hour light-dark schedule and given access to water and food ad libitum. The diet was comprised of NIH (National Institutes of Health) Rat and Mouse/Auto 6F Reduced Fat Diet No. 5K52 (PMI Nutrition International Inc., Brentwood, Mo.).
The vehicle, used as a reference and for test compounds, was 0.5% methylcellulose dissolved in water. The compounds were either fully dissolved or uniformly suspended in the vehicle when administered to the mice.
The db/db mice were randomly separated into five groups of eight, as were the heterozygous littermates. The groups were as follows: one vehicle control group and four groups that each received one of four doses of topiramate (TPM) (10, 30, 100, or 300 mg/kg, respectively). Topiramate or vehicle was administered orally by gavage once a day during the 8th hour of the light portion of the light-dark cycle.
Between 18 and 24 hours after the last dose was administered, the mice were anesthetized with CO2/O2 (70:30) and blood from the retro-orbital sinus puncture was collected into 2 mL heparinized snap-top polypropylene tubes, then placed in ice.
Plasma was separated from blood cells by centrifugation (15 minutes at 1600 g). For samples not assayed immediately, the plasma was transferred into 96-well plates and frozen at −70° C.
Glucose and triglycerides were assayed using standard procedures for blood clinical laboratories. Specifically, the samples were analyzed using an automated Hitachi 717 autoanalyzer (Boehringer Mannheim/Hitachi 717 Autoanalyzer, Boehringer Mannheim Laboratory Systems Division, Indianapolis, Ind.). A statistical analysis of data for the drug-treated groups compared to data for the vehicle group was performed using the one-way analysis of variance (ANOVA) with Dunnett's Multiple Comparisons test.
Following the procedure described above, the effect of topiramate on plasma glucose and triglyceride levels was determined for female diabetic db/db mice and littermates, following 11 days oral dosage, with results as listed in Table 3 and 4. Body weights are in Table 5. The abbreviation N represents the number of animals per study group.

[2] = TPM 1: 20 mg/kg/day 84 days then 180 mg/kg/day 36 days in food
[3] = TPM 2: 60 mg/kg/day 120 days in food

CC1(C)O[C@@H]2[C@@H](CO[C@@]3(COS(N)(=O)=O)OC(C)(C)O[C@@H]23)O1 [Topiramate, 2,3:4,5-bis-O-(1-methylethylidene)-β-D-fructopyranose sulfamate]
Glucose percentage difference versus control (ob/ob mice; [2]): −39%
Insulin percentage difference versus control (ob/ob mice; [2]): −37%
Triglycerides percentage difference versus control (ob/ob mice; [2]): −46%
Blood concentration Glucose (ob/ob mice; [2]): 183 ± 33 mg/dL
Blood concentration Insulin (ob/ob mice; [2]): 6.4 ± 0.7 ng/mL
Blood concentration Triglycerides (ob/ob mice; [2]): 103 ± 5 mg/dL
Glucose percentage difference versus control (ob/ob mice; [3]): −41%
Insulin percentage difference versus control (ob/ob mice; [3]): −21%
Triglycerides percentage difference versus control (ob/ob mice; [3]): −41%
Blood concentration Glucose (ob/ob mice; [3]): 179 ± 11 mg/dL
Blood concentration Insulin (ob/ob mice; [3]): 8.0 ± 0.9 ng/mL
Blood concentration Triglycerides (ob/ob mice; [3]): 113 ± 8 mg/dL
body weight (ob/ob mice; TPM 2 group (60 mg/kg/day), day 119): 62.2 ± 1.2 g
body weight (ob/ob mice; TPM 2 group (60 mg/kg/day), day −1 (beginning of administration)): 48.4 ± 0.9 g
Body weight gain compared with control (ob/ob mice; TPM 2 group (60 mg/kg/day), day −1 to day 119): Body weight gain for the control and TPM 2 groups from day −1 to day 119 was also similar.
Plasma Glucose % Change ([1]; 10 mg/kg oral once a day): −1.2%
Plasma Triglycerides % Change ([1]; 10 mg/kg oral once a day): −0.3%
Change in Body Weight ([1]; 10 mg/kg oral once a day): 0.5 ± 0.2 g
Plasma Glucose Plasma Conc. ([1]; 10 mg/kg oral once a day): 145 ± 6 mg/dL
Plasma Triglycerides Plasma Conc. ([1]; 10 mg/kg oral once a day): 141 ± 13 mg/dL
Plasma Glucose % Change ([1]; 30 mg/kg oral once a day): +3.8%
Plasma Triglycerides % Change ([1]; 30 mg/kg oral once a day): −17.5%
Change in Body Weight ([1]; 30 mg/kg oral once a day): 0.0 ± 0.3 g
Plasma Glucose Plasma Conc. ([1]; 30 mg/kg oral once a day): 152 ± 6 mg/dL
Plasma Triglycerides Plasma Conc. ([1]; 30 mg/kg oral once a day): 116 ± 6 mg/dL
Plasma Glucose % Change ([1]; 100 mg/kg oral once a day): +0.8%
Plasma Triglycerides % Change ([1]; 100 mg/kg oral once a day): −34.8%
Change in Body Weight ([1]; 100 mg/kg oral once a day): 0.2 ± 0.2 g
Plasma Glucose Plasma Conc. ([1]; 100 mg/kg oral once a day): 148 ± 7 mg/dL
Plasma Triglycerides Plasma Conc. ([1]; 100 mg/kg oral once a day, P < 0.01): 92 ± 6 mg/dL
Plasma Glucose % Change ([1]; 300 mg/kg oral once a day): −17.2%
Plasma Triglycerides % Change ([1]; 300 mg/kg oral once a day): −1.8%
Plasma Triglycerides Plasma Conc. ([1]; 300 mg/kg oral once a day): 138 ± 15 mg/dL
Plasma Glucose Plasma Conc. ([1]; 300 mg/kg oral once a day, P < 0.01): 121 ± 7 mg/dL
Change in Body Weight ([1]; 300 mg/kg oral once a day, P < 0.05): -2.2 ± 0.5 g
